From patent US11053204B2, “Pyrimidinyloxy benzene derivatives as herbicides” (FMC Corporation, priority 2015, dated 2021)

Legend:
Assay type in all cases: in vivo
kochia (Kochia scoparia) [1] = experiment: Test A preemergence, visual injury rating
How it was run: (§1)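 Pre- and postemergence greenhouse screen. Soil: loam + sand. Spray carrier: solvent mixture, non-phytotoxic, with surfactant. Post timing at 1–2 leaves, height 2–10 cm. Readout: visual injury on a 0–100 scale roughly 10 days after application, untreated plants as reference.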

[2] = system: Italian ryegrass (Lolium multiflorum); experiment: Test A preemergence, visual injury rating
How it was run: as §1

[3] = system: ragweed (common ragweed, Ambrosia elatior); experiment: Test A preemergence, visual injury rating
How it was run: as §1

[4] = system: barnyardgrass (Echinochloa crus-galli); experiment: Test A preemergence, visual injury rating
How it was run: as §1

[5] = system: giant foxtail (Setaria faberii); experiment: Test A preemergence, visual injury rating
How it was run: as §1

[6] = system: pigweed (Amaranthus retroflexus); experiment: Test A preemergence, visual injury rating
How it was run: as §1

kochia (Kochia scoparia) [7] = experiment: Test A postemergence, visual injury rating
How it was run: as §1

[8] = system: Italian ryegrass (Lolium multiflorum); experiment: Test A postemergence, visual injury rating
How it was run: as §1

corn (Zea mays) = experiment: Test A postemergence, visual injury rating
How it was run: as §1

[9] = system: blackgrass (Alopecurus myosuroides); experiment: Test A postemergence, visual injury rating
How it was run: as §1

[10] = system: ragweed (common ragweed, Ambrosia elatior); experiment: Test A postemergence, visual injury rating
How it was run: as §1

[11] = system: barnyardgrass (Echinochloa crus-galli); experiment: Test A postemergence, visual injury rating
How it was run: as §1

[12] = system: giant foxtail (Setaria faberii); experiment: Test A postemergence, visual injury rating
How it was run: as §1

[13] = system: galium (catchweed bedstraw, Galium aparine); experiment: Test A postemergence, visual injury rating
How it was run: as §1

[14] = system: pigweed (Amaranthus retroflexus); experiment: Test A postemergence, visual injury rating
How it was run: as §1

[15] = system: wheat (Triticum aestivum); experiment: Test A postemergence, visual injury rating
How it was run: as §1

[16] = system: barnyardgrass (Echinochloa crus-galli); experiment: Test B flooded paddy test, plant response rating; conditions: 250 g ai/ha; Flood; scale of 0 to 100 where 0 is no effect and 100 is complete control; 13 to 15 days
How it was run: (§2)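 Under a constant 3 cm flood, test compounds went directly into the paddy water. Following 13 to 15 days of greenhouse growth, treated species and controls were compared by eye.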

rice (Oryza sativa) = experiment: Test B flooded paddy test, plant response rating; conditions: 250 g ai/ha; Flood; scale of 0 to 100 where 0 is no effect and 100 is complete control; 13 to 15 days
How it was run: as §2

[17] = system: sedge, umbrella (small-flower umbrella sedge, Cyperus difformis); experiment: Test B flooded paddy test, plant response rating; conditions: 250 g ai/ha; Flood; scale of 0 to 100 where 0 is no effect and 100 is complete control; 13 to 15 days
How it was run: as §2

[18] = system: ducksalad (Heteranthera limosa); experiment: Test B flooded paddy test, plant response rating; conditions: 250 g ai/ha; Flood; scale of 0 to 100 where 0 is no effect and 100 is complete control; 13 to 15 days
How it was run: as §2

[19] = 31 g ai/ha, 0 to 100 scale, 0 no effect, 100 complete control
[20] = 125 g ai/ha, 0 to 100 scale (0 no effect, 100 complete control)
[21] = 125 g ai/ha, 0 to 100 scale, 0 is no effect, 100 is complete control, approximately 10 days
[22] = 31 g ai/ha, 0 to 100 scale, 0 is no effect, 100 is complete control, approximately 10 days
[23] = 31 g ai/ha, 0 to 100 scale (0 no effect, 100 complete control)

## O=C(OCC(Cl)CCl)c1c(Br)cccc1Oc1ncc(Cl)cn1 (centres unmarked) [Compound 97]
Kochia (Kochia scoparia) [1]; [19]
  Plant response rating, Kochia: 0
Kochia (Kochia scoparia) [1]; [20]
  Plant response rating, Kochia: 0
[2]; [19]
  Plant response rating, Ryegrass, Italian: 0
[2]; [20]
  Plant response rating, Ryegrass, Italian: 0
[3]; [19]
  Plant response rating, Ragweed: 0
[3]; [20]
  Plant response rating, Ragweed: 0
[4]; [19]
  Plant response rating, Barnyardgrass: 0
[4]; [20]
  Barnyardgrass plant response rating: 10
[5]; [19]
  Plant response rating, Foxtail, Giant: 40
[5]; [20]
  Plant response rating, Foxtail, Giant: 70
[6]; [19]
  Plant response rating, Pigweed: 0
[6]; [20]
  Plant response rating, Pigweed: 20
Kochia (Kochia scoparia) [7]; [21]
  Kochia plant response rating: 40
[8]; [22]
  Ryegrass, Italian plant response rating: 20
[8]; [21]
  Ryegrass, Italian plant response rating: 30
Corn (Zea mays); [22]
  Corn plant response rating: 10
Corn (Zea mays); [21]
  Corn plant response rating: 10
[9]; [22]
  Blackgrass plant response rating: 0
[9]; [21]
  Blackgrass plant response rating: 20
[10]; [22]
  Ragweed plant response rating: 10
[10]; [21]
  Ragweed plant response rating: 20
[11]; [22]
  Barnyardgrass plant response rating: 10
[11]; [21]
  Barnyardgrass plant response rating: 20
[12]; [22]
  Foxtail, Giant plant response rating: 10
[12]; [21]
  Foxtail, Giant plant response rating: 60
[13]; [22]
  Galium plant response rating: 100
[13]; [21]
  Galium plant response rating: 100
[14]; [22]
  Pigweed plant response rating: 20
[14]; [21]
  Pigweed plant response rating: 50
[15]; [22]
  Wheat plant response rating: 0
[15]; [21]
  Wheat plant response rating: 0
[16]
  Plant response rating, Barnyardgrass: 0
Rice (Oryza sativa)
  Plant response rating, Rice: 0
[17]
  Plant response rating, Sedge, Umbrella: 75
[18]
  Plant response rating, Ducksalad: 70

## N#Cc1cccc(Oc2ncc(Cl)cn2)c1NCCCC(F)(F)F [Compound 146]
Kochia (Kochia scoparia) [1]; [19]
  Plant response rating, Kochia: 60
Kochia (Kochia scoparia) [1]; [20]
  Plant response rating, Kochia: 80
[2]; [19]
  Plant response rating, Ryegrass, Italian: 0
[2]; [20]
  Plant response rating, Ryegrass, Italian: 50
[3]; [19]
  Plant response rating, Ragweed: 0
[3]; [20]
  Plant response rating, Ragweed: 0
[4]; [19]
  Plant response rating, Barnyardgrass: 20
[4]; [20]
  Plant response rating, Barnyardgrass: 100
[5]; [19]
  Plant response rating, Foxtail, Giant: 80
[5]; [20]
  Plant response rating, Foxtail, Giant: 100
[6]; [19]
  Plant response rating, Pigweed: 60
[6]; [20]
  Plant response rating, Pigweed: 100
Kochia (Kochia scoparia) [7]; [23]
  Kochia plant response rating: 70
Kochia (Kochia scoparia) [7]; [21]
  Kochia plant response rating: 100
[8]; [23]
  Ryegrass, Italian plant response rating: 0
[8]; [21]
  Ryegrass, Italian plant response rating: 70
Corn (Zea mays); [23]
  Corn plant response rating: 20
Corn (Zea mays); [21]
  Corn plant response rating: 80
[9]; [23]
  Blackgrass plant response rating: 30
[9]; [21]
  Blackgrass plant response rating: 90
[10]; [23]
  Ragweed plant response rating: 0
[10]; [21]
  Ragweed plant response rating: 30
[11]; [23]
  Barnyardgrass plant response rating: 30
[11]; [21]
  Barnyardgrass plant response rating: 90
[12]; [23]
  Foxtail, Giant plant response rating: 30
[12]; [21]
  Foxtail, Giant plant response rating: 90
[13]; [23]
  Galium plant response rating: 70
[13]; [21]
  Galium plant response rating: 100
[14]; [23]
  Pigweed plant response rating: 60
[14]; [21]
  Pigweed plant response rating: 70
[15]; [23]
  Wheat plant response rating: 20
[15]; [21]
  Wheat plant response rating: 20
[16]
  Plant response rating, Barnyardgrass: 40
Rice (Oryza sativa)
  Plant response rating, Rice: 35
[17]
  Plant response rating, Sedge, Umbrella: 85
[18]
  Plant response rating, Ducksalad: 100
